Assay results: patent publication US12329745B2, “Methods and compositions for treating glucocorticoid excess” (Sparrow Pharmaceuticals, Inc., priority 2022, dated 2025)
Read-outs that look alike come from different tables or passages of the source. Marks after values point to notes of the source that are not given here.

Experiments:
[1] = molecular target: HSD-1 (Homo sapiens, UniProt P28845); details: both, in vivo
[2] = system: serum cortisone; test: Serum cortisone and cortisol in patients with painful diabetic peripheral neuropathy; type: in vivo, human; details: 10 mg for 6 weeks
[3] = system: C57BL/6 male mice; test: Mitigation of corticosterone (CORT) adverse effects in mouse; type: in vivo; design: food consumption, group Mean: unit not given here; details: for Fat depot weight, Gonadal, Mean / Fat depot weight, Mesenteric, Mean / Fat depot weight, Retroperitoneal, Mean / Fat depot weight, Subcutaneous, Mean / Muscle weight, Quadriceps, Mean / Muscle weight, Tibialis anterior, Mean: post-mortem Day 36
Description: A control group received no CORT or SPI-62. Body weight was assessed daily and food consumption twice weekly. Whole body muscle and fat amounts were measured at Days 0, 14, and 28 using an EchoMRI-130H body composition analyzer. Blood samples for fasting glucose and insulin were obtained at Days 1 (pre-dose), 15, 29, and 35. An open field test was conducted on Day 22. A grip strength test was performed on Day 28. After sacrifice on Day 36, gonadal, subcutaneous, retroperitoneal, and mesenteric fat, quadriceps, and tibialis anterior were dissected and weighed, and skin was formalin fixed and paraffin embedded.

[4] = molecular target: liver HSD-1 (Homo sapiens, UniProt P28845); test: Urinary HSD-1 ratio (tetrahydrocortisol+allotetrahydrocortisol)/tetrahydrocortisone; type: in vivo; design: from tissue; host or cells: human liver in vivo, read through urinary steroid metabolites; details: for mean urinary HSD-1 ratio, reduction from baseline: 0.7 mg daily
Description: The tetrahydro metabolites are rapidly and extensively excreted in urine. […] Continued adrenal synthesis provides a circulating pool of cortisol, the free fraction of which (˜5%) enters cells. That prevents the urinary HSD-1 ratio from dropping below approximately 0.1.

[5] = Human plasma pharmacokinetics of SPI-62; type: in vivo; details: for Cmax: human, plasma, oral
Description: The single- and multiple-dose pharmacokinetics of SPI-62 were well-characterized by a two-compartment TMDD population pharmacokinetics model with 3 transit absorption compartments and an estimated target capacity of ˜2.5 mg of SPI-62 which comports well with the dose range in which pharmacokinetic nonlinearity is prominent.

Sequence of liver HSD-1 (P28845 whole entry): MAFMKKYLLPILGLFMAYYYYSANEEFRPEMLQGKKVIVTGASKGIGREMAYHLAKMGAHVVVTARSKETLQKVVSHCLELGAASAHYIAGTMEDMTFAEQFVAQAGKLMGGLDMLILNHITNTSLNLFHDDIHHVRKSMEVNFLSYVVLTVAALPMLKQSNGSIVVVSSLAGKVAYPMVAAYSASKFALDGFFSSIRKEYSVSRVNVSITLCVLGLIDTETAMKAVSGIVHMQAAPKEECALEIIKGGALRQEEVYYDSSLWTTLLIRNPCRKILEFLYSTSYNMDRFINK
Sequence of HSD-1 (P28845 whole entry): as above

Cn1c(-c2ccc(C(N)=O)cc2F)nnc1C(C)(C)Oc1c(F)cc(Cl)cc1F [SPI-62, 4-(5-(2-(4-chloro-2,6-difluorophenoxy)propan-2-yl)-4-methyl-4H-1,2,4-triazol-3-yl)-3-fluorobenzamide]
total target amount in the central compartment (RTOT) [1]: 7.84 µM
serum cortisol [2]: did not change
serum cortisone ([2]; last day of study drug administration (n=36)): 56.0 (2.37) nM
serum cortisone ([2]; two weeks later): 49.5 (1.75) nM
Whole-body fat content LSM ([3]; 1 mg/kg QD + CORT, Day 14): 0.121^a
Whole-body muscle content LSM ([3]; 1 mg/kg QD + CORT, Day 14): 0.82^a
HOMA-IR LSM ([3]; 1 mg/kg QD + CORT, Day 15): 3.73ª mmol glucose/μU insulin
Whole-body fat content LSM ([3]; 1 mg/kg QD + CORT, Day 28): 0.142^ab
Whole-body muscle content LSM ([3]; 1 mg/kg QD + CORT, Day 28): 0.77^a
HOMA-IR LSM ([3]; 1 mg/kg QD + CORT, Day 29): 3.56^ab mmol glucose/μU insulin
HOMA-IR LSM ([3]; 1 mg/kg QD + CORT, Day 35): 8.16^b mmol glucose/μU insulin
Fat depot weight, Gonadal, Mean ([3]; 1 mg/kg QD + CORT): 10.60 mg/g body weight
Fat depot weight, Mesenteric, Mean ([3]; 1 mg/kg QD + CORT): 6.46 mg/g body weight
Fat depot weight, Retroperitoneal, Mean ([3]; 1 mg/kg QD + CORT): 3.33 mg/g body weight
Fat depot weight, Subcutaneous, Mean ([3]; 1 mg/kg QD + CORT): 4.04 mg/g body weight
Muscle weight, Quadriceps, Mean ([3]; 1 mg/kg QD + CORT): 3.98 mg/g body weight
Muscle weight, Tibialis anterior, Mean ([3]; 1 mg/kg QD + CORT): 1.60 mg/g body weight
Whole-body fat content LSM ([3]; 10 mg/kg BID + CORT, Day 14): 0.064^b
Whole-body muscle content LSM ([3]; 10 mg/kg BID + CORT, Day 14): 0.89^b
HOMA-IR LSM ([3]; 10 mg/kg BID + CORT, Day 15): 0.94^b mmol glucose/μU insulin
Whole-body fat content LSM ([3]; 10 mg/kg BID + CORT, Day 28): 0.061^b
Whole-body muscle content LSM ([3]; 10 mg/kg BID + CORT, Day 28): 0.86^b
HOMA-IR LSM ([3]; 10 mg/kg BID + CORT, Day 29): 0.94^b mmol glucose/μU insulin
HOMA-IR LSM ([3]; 10 mg/kg BID + CORT, Day 35): 2.16^b mmol glucose/μU insulin
Fat depot weight, Gonadal, Mean ([3]; 10 mg/kg BID + CORT): 6.02 mg/g body weight
Fat depot weight, Mesenteric, Mean ([3]; 10 mg/kg BID + CORT): 4.73 mg/g body weight
Fat depot weight, Retroperitoneal, Mean ([3]; 10 mg/kg BID + CORT): 2.21 mg/g body weight
Fat depot weight, Subcutaneous, Mean ([3]; 10 mg/kg BID + CORT): 1.95 mg/g body weight
Muscle weight, Quadriceps, Mean ([3]; 10 mg/kg BID + CORT): 5.90 mg/g body weight
Muscle weight, Tibialis anterior, Mean ([3]; 10 mg/kg BID + CORT): 2.36 mg/g body weight
Whole-body fat content LSM ([3]; 10 mg/kg QD + CORT, Day 14): 0.061^b
Whole-body muscle content LSM ([3]; 10 mg/kg QD + CORT, Day 14): 0.87^b
HOMA-IR LSM ([3]; 10 mg/kg QD + CORT, Day 15): 1.41^b mmol glucose/μU insulin
Whole-body fat content LSM ([3]; 10 mg/kg QD + CORT, Day 28): 0.115^ab
Whole-body muscle content LSM ([3]; 10 mg/kg QD + CORT, Day 28): 0.80^b
HOMA-IR LSM ([3]; 10 mg/kg QD + CORT, Day 29): 1.88^ab mmol glucose/μU insulin
HOMA-IR LSM ([3]; 10 mg/kg QD + CORT, Day 35): 2.28^b mmol glucose/μU insulin
Fat depot weight, Gonadal, Mean ([3]; 10 mg/kg QD + CORT): 8.44 mg/g body weight
Fat depot weight, Mesenteric, Mean ([3]; 10 mg/kg QD + CORT): 6.23 mg/g body weight
Fat depot weight, Retroperitoneal, Mean ([3]; 10 mg/kg QD + CORT): 2.40 mg/g body weight
Fat depot weight, Subcutaneous, Mean ([3]; 10 mg/kg QD + CORT): 3.35 mg/g body weight
Muscle weight, Quadriceps, Mean ([3]; 10 mg/kg QD + CORT): 5.33 mg/g body weight
Muscle weight, Tibialis anterior, Mean ([3]; 10 mg/kg QD + CORT): 2.14 mg/g body weight
body weight, group Mean ([3]; 1 mpk QD + CORT, Baseline): 22.1 g
food consumption, group Mean ([3]; 1 mpk QD + CORT, Day 4): 3.26
food consumption, group Mean ([3]; 1 mpk QD + CORT, Day 8): 2.92
food consumption, group Mean ([3]; 1 mpk QD + CORT, Day 11): 3.09
body weight, group Mean ([3]; 1 mpk QD + CORT, Day 15): 21.9 g
food consumption, group Mean ([3]; 1 mpk QD + CORT, Day 15): 3.04
food consumption, group Mean ([3]; 1 mpk QD + CORT, Day 18): 2.91
food consumption, group Mean ([3]; 1 mpk QD + CORT, Day 22): 3.23
food consumption, group Mean ([3]; 1 mpk QD + CORT, Day 25): 3.74
body weight, group Mean ([3]; 1 mpk QD + CORT, Day 29): 23.2 g
food consumption, group Mean ([3]; 1 mpk QD + CORT, Day 29): 2.90
food consumption, group Mean ([3]; 1 mpk QD + CORT, Day 32): 2.77
body weight, group Mean ([3]; 1 mpk QD + CORT, Day 35): 23.8 g
food consumption, group Mean ([3]; 1 mpk QD + CORT, Day 36): 3.13
body weight, group Mean ([3]; 10 mpk BID + CORT, Baseline): 22.1 g
food consumption, group Mean ([3]; 10 mpk BID + CORT, Day 4): 3.36
food consumption, group Mean ([3]; 10 mpk BID + CORT, Day 8): 2.88
food consumption, group Mean ([3]; 10 mpk BID + CORT, Day 11): 2.92
body weight, group Mean ([3]; 10 mpk BID + CORT, Day 15): 21.5 g
food consumption, group Mean ([3]; 10 mpk BID + CORT, Day 15): 2.74
food consumption, group Mean ([3]; 10 mpk BID + CORT, Day 18): 3.36
food consumption, group Mean ([3]; 10 mpk BID + CORT, Day 22): 2.89
food consumption, group Mean ([3]; 10 mpk BID + CORT, Day 25): 3.13
body weight, group Mean ([3]; 10 mpk BID + CORT, Day 29): 21.7 g
food consumption, group Mean ([3]; 10 mpk BID + CORT, Day 29): 2.79
food consumption, group Mean ([3]; 10 mpk BID + CORT, Day 32): 3.27
body weight, group Mean ([3]; 10 mpk BID + CORT, Day 35): 21.8 g
food consumption, group Mean ([3]; 10 mpk BID + CORT, Day 36): 2.83
body weight, group Mean ([3]; 10 mpk QD + CORT, Baseline): 22 g
food consumption, group Mean ([3]; 10 mpk QD + CORT, Day 4): 3.37
food consumption, group Mean ([3]; 10 mpk QD + CORT, Day 8): 2.98
food consumption, group Mean ([3]; 10 mpk QD + CORT, Day 11): 3.11
body weight, group Mean ([3]; 10 mpk QD + CORT, Day 15): 21.4 g
food consumption, group Mean ([3]; 10 mpk QD + CORT, Day 15): 2.91
food consumption, group Mean ([3]; 10 mpk QD + CORT, Day 18): 3.08
food consumption, group Mean ([3]; 10 mpk QD + CORT, Day 22): 3.15
food consumption, group Mean ([3]; 10 mpk QD + CORT, Day 25): 3.50
body weight, group Mean ([3]; 10 mpk QD + CORT, Day 29): 22.2 g
food consumption, group Mean ([3]; 10 mpk QD + CORT, Day 29): 2.99
food consumption, group Mean ([3]; 10 mpk QD + CORT, Day 32): 3.00
body weight, group Mean ([3]; 10 mpk QD + CORT, Day 35): 22.8 g
food consumption, group Mean ([3]; 10 mpk QD + CORT, Day 36): 3.24
CORT effects on dermal thickness and structure ([3]; 35 days, FIG. 12): less prominent
effect in the open field test ([3]; Day 22): No effect
CORT adverse effect of grip strength reduction ([3]; Day 28): prevented
mean reduction of the urinary HSD-1 ratio from baseline ([4]; 0.2 mg daily for 14 days, last dosing day): 87%
time after the last dose with incomplete return of urinary HSD-1 ratio to baseline ([4]; healthy adults): more than 2 weeks
mean urinary HSD-1 ratio, reduction from baseline ([4]; healthy adults, 16±2 days after cessation): 55%
mean urinary HSD-1 ratio, reduction from baseline ([4]; healthy adults, last dosing day): 84%
mean urinary HSD-1 ratio ([4]; patients, 10 mg daily for 6 weeks, 2 weeks after the last dose): 0.33
mean urinary HSD-1 ratio ([4]; patients, 10 mg daily for 6 weeks, last dosing day): 0.13
mean urinary HSD-1 ratio ([4]; single 1 mg dose, urine 0 to 6 hours post-dose): 0.694
mean urinary HSD-1 ratio ([4]; single 1 mg dose, urine 6 to 12 hours post-dose): 0.471
mean urinary HSD-1 ratio ([4]; single 1 mg dose, urine 12 to 24 hours post-dose): 0.472
mean urinary HSD-1 ratio ([4]; single 1 mg dose, urine 24 to 48 hours post-dose): 0.522
mean urinary HSD-1 ratio ([4]; single 1 mg dose, urine 48 to 72 hours post-dose): 0.618
mean difference v placebo of the urinary HSD-1 ratio ([4]; single dose 1 mg): 51%
unbound concentration corresponding to Cmax ([5]; 0.2 mg daily for 14 days): < 0.25 nM
plasma levels after 14 days of dosing, dose proportionality ([5]; doses of 0.2 to 50 mg): approximately dose-proportional
Cmax ([5]; 0.2 mg, 0.2 mg daily for 14 days, last dosing day, read-out: mean maximum plasma drug concentration (Cmax)): < 1 ng/mL
Cmax ([5]; 1 mg, single dose 1 mg, read-out: mean Cmax): < 0.05 ng/mL
Cmax ([5]; multiple doses 0.2 to 50 mg, read-out: Cmax means): 1 to 835 ng/mL
Cmax ([5]; single doses of 6 to 60 mg, read-out: Cmax means): 28 to 595 ng/mL
plasma drug levels (all below the LLOQ) ([5]; single 1 mg dose): < 0.1 ng/mL
unbound concentration corresponding to Cmax ([5]; single dose 1 mg): < 0.012 nM
plasma exposures after single doses, dose proportionality ([5]; single doses, 0.7 to 3 mg much lower dose-normalized levels): substantial non-linearity
estimated target capacity ([5]; two-compartment TMDD population pharmacokinetics model): ~2.5 mg
